Reference: the supplement of paper PMC10307832

What follows are cell lines tested with N[C@@H]1CCCN(c2c(/C=C3\SC(=O)NC3=O)cccc2-c2ccccc2)C1 [AZD1208] + CC(=O)c1c(C)c2cnc(Nc3ccc(N4CCNCC4)cn3)nc2n(C2CCCC2)c1=O [Palbociclib] (partner 0.5 µM) (assay: relative viability (nuclei count vs DMSO), 5 days (fraction); higher = more cells survive). Settings: first compound 0.08 µM.
In short: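 Values are medians from duplicate plates. Each reflects relative viability, defined as the nuclei count of treated wells over that of vehicle wells. Lung cancer cell lines in 1536-well plates were pin-tool dosed one day after seeding with one drug alone or with a fixed anchor-drug dose plus five library-drug doses (not always all listed) in √10 steps, then fixed, stained and imaged at 4× after 5 days.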

Row | Cell Line | relative viability
1 | NCI-H650 | 0.309
2 | CAL-12T | 0.501
3 | NCI-H1651 | 0.527
4 | EPLC-272H | 0.363
5 | NCI-H23 | 0.491
6 | NCI-H1792 | 0.697
7 | NCI-H1355 | 0.396
8 | NCI-H322M | 0.488
9 | NCI-H1437 | 0.288
10 | NCI-H1755 | 0.439
11 | NCI-H2085 | 0.462
12 | HCC-15 | 0.748
13 | NCI-H1793 | 0.293
14 | PC-3 [JPC-3] | 0.586
15 | EKVX | 0.383
16 | LC-2-ad | 0.591
17 | NCI-H1944 | 0.314
18 | NCI-H1975 | 0.56
19 | SK-LU-1 | 0.341
20 | ABC-1 | 0.815
21 | NCI-H358 | 0.14
22 | NCI-H661 | 0.418
23 | RERF-LC-KJ | 1.05

Same assay, conditions: first compound 0.253 µM

Row | Cell Line | relative viability
24 | NCI-H650 | 0.287
25 | CAL-12T | 0.483
26 | NCI-H1651 | 0.535
27 | EPLC-272H | 0.34
28 | NCI-H23 | 0.478
29 | NCI-H1792 | 0.663
30 | NCI-H1355 | 0.37
31 | NCI-H322M | 0.467
32 | NCI-H1437 | 0.353
33 | NCI-H1755 | 0.459
34 | NCI-H2085 | 0.473
35 | HCC-15 | 0.872
36 | NCI-H1793 | 0.305
37 | PC-3 [JPC-3] | 0.596
38 | EKVX | 0.41
39 | LC-2-ad | 0.52
40 | NCI-H1944 | 0.304
41 | NCI-H1975 | 0.686
42 | SK-LU-1 | 0.373
43 | ABC-1 | 0.631
44 | NCI-H358 | 0.149
45 | NCI-H661 | 0.394
46 | RERF-LC-KJ | 1.09

Same assay, conditions: first compound 0.8 µM

Row | Cell Line | relative viability
47 | NCI-H650 | 0.314
48 | CAL-12T | 0.569
49 | EPLC-272H | 0.326
50 | NCI-H23 | 0.462
51 | NCI-H1792 | 0.616
52 | NCI-H1355 | 0.372
53 | NCI-H1437 | 0.302
54 | NCI-H1755 | 0.437
55 | NCI-H2085 | 0.52
56 | HCC-15 | 0.68
57 | NCI-H1793 | 0.273
58 | PC-3 [JPC-3] | 0.548
59 | EKVX | 0.336
60 | LC-2-ad | 0.528
61 | NCI-H1944 | 0.295
62 | NCI-H1975 | 0.535
63 | SK-LU-1 | 0.375
64 | ABC-1 | 0.474
65 | NCI-H358 | 0.109
66 | NCI-H661 | 0.428
67 | RERF-LC-KJ | 1

Same assay, conditions: first compound 2.53 µM

Row | Cell Line | relative viability
68 | NCI-H650 | 0.29
69 | CAL-12T | 0.434
70 | NCI-H1651 | 0.473
71 | EPLC-272H | 0.308
72 | NCI-H23 | 0.477
73 | NCI-H1792 | 0.587
74 | NCI-H1355 | 0.385
75 | NCI-H322M | 0.5
76 | NCI-H1437 | 0.263
77 | NCI-H1755 | 0.458
78 | NCI-H2085 | 0.482
79 | HCC-15 | 0.711
80 | NCI-H1793 | 0.304
81 | PC-3 [JPC-3] | 0.582
82 | EKVX | 0.332
83 | LC-2-ad | 0.501
84 | NCI-H1944 | 0.311
85 | NCI-H1975 | 0.591
86 | SK-LU-1 | 0.421
87 | ABC-1 | 0.563
88 | NCI-H358 | 0.14
89 | NCI-H661 | 0.414
90 | RERF-LC-KJ | 1.02

Same assay, conditions: first compound 8 µM

Row | Cell Line | relative viability
91 | NCI-H650 | 0.289
92 | CAL-12T | 0.448
93 | NCI-H1651 | 0.459
94 | EPLC-272H | 0.373
95 | NCI-H23 | 0.356
96 | NCI-H1792 | 0.554
97 | NCI-H1355 | 0.318
98 | NCI-H322M | 0.502
99 | NCI-H1437 | 0.291
100 | NCI-H1755 | 0.385
101 | NCI-H2085 | 0.474
102 | HCC-15 | 0.657
103 | NCI-H1793 | 0.288
104 | PC-3 [JPC-3] | 0.564
105 | EKVX | 0.419
106 | LC-2-ad | 0.5
107 | NCI-H1944 | 0.251
108 | NCI-H1975 | 0.403
109 | SK-LU-1 | 0.401
110 | ABC-1 | 0.444
111 | NCI-H358 | 0.14
112 | NCI-H661 | 0.4
